Laboratory results from the OligoGym collection.
HELM strings list units from the 5' end as sugar, base in round brackets, then linkage (d deoxyribose, r ribose, m 2'-O-methyl, p phosphodiester). Strings are as the collection lists them; they lack the last nucleoside at the 3' end of the tested compound. [moe] = 2'-O-(2-methoxyethyl) (MOE); [sp] = phosphorothioate linkage; [m5C] = 5-methylcytosine

The substances below were run against ATXN2 (assay: mouse, dose not given). Conditions: ASO.

Substance | 3 h FOB score [score 0-7]
RNA1{[moe](G)[sp].[moe](T)p.[moe](T)p.[moe](T)p.[moe](T)p.d(G)[sp].d(T)[sp].d(T)[sp].d(T)[sp].d(A)[sp].d(A)[sp].d(T)[sp].d([m5C])[sp].d(A)[sp].d([m5C])[sp].[moe](A)p.[moe](G)p.[moe](T)[sp].[moe](T)}$$$$ (last 3' nucleoside missing) | 2
RNA1{[moe](G)[sp].[moe](T)p.[moe](T)p.[moe]([m5C])p.[moe](A)p.d(A)[sp].d(A)[sp].d(T)[sp].d(T)[sp].d([m5C])[sp].d([m5C])[sp].d(G)[sp].d(G)[sp].d([m5C])[sp].d(T)[sp].[moe]([m5C])p.[moe]([m5C])p.[moe](A)[sp].[moe](T)}$$$$ (last 3' nucleoside missing) | 5.25
RNA1{[moe](G)[sp].[moe](T)p.[moe](T)p.[moe]([m5C])p.[moe](A)p.d(T)[sp].d(G)[sp].d(A)[sp].d([m5C])[sp].d(T)[sp].d(T)[sp].d(T)[sp].d([m5C])[sp].d(A)[sp].d(A)[sp].[moe](G)p.[moe](G)p.[moe](G)[sp].[moe](T)}$$$$ (last 3' nucleoside missing) | 2
RNA1{[moe](G)[sp].[moe](T)p.[moe](T)p.[moe]([m5C])p.[moe](A)p.d(T)[sp].d(T)[sp].d([m5C])[sp].d([m5C])[sp].d(A)[sp].d(G)[sp].d(A)[sp].d(T)[sp].d(T)[sp].d(T)[sp].[moe]([m5C])p.[moe](A)p.[moe]([m5C])[sp].[moe](T)}$$$$ (last 3' nucleoside missing) | 4
RNA1{[moe](G)[sp].[moe](T)p.[moe](T)p.[moe]([m5C])p.[moe](A)p.d(T)[sp].d([m5C])[sp].d(T)[sp].d(T)[sp].d(T)[sp].d(T)[sp].d([m5C])[sp].d([m5C])[sp].d(T)[sp].d(T)[sp].[moe]([m5C])p.[moe](A)p.[moe](G)[sp].[moe](A)}$$$$ (last 3' nucleoside missing) | 0
RNA1{[moe](G)[sp].[moe](T)p.[moe](T)p.[moe]([m5C])p.[moe]([m5C])p.d(T)[sp].d(T)[sp].d(A)[sp].d([m5C])[sp].d(A)[sp].d(A)[sp].d(T)[sp].d(T)[sp].d(A)[sp].d(T)[sp].[moe]([m5C])p.[moe](T)p.[moe](A)[sp].[moe](T)}$$$$ (last 3' nucleoside missing) | 3
RNA1{[moe](G)[sp].[moe](T)p.[moe]([m5C])p.[moe](T)p.[moe](T)p.d(G)[sp].d(T)[sp].d(T)[sp].d([m5C])[sp].d(A)[sp].d(G)[sp].d(T)[sp].d(G)[sp].d(T)[sp].d([m5C])[sp].[moe]([m5C])p.[moe](T)p.[moe](T)[sp].[moe]([m5C])}$$$$ (last 3' nucleoside missing) | 6
RNA1{[moe](G)[sp].[moe]([m5C])[sp].[moe](T)[sp].[moe](A)[sp].[moe](A)[sp].d([m5C])[sp].d(T)[sp].d(G)[sp].d(G)[sp].d(T)[sp].d(T)[sp].d(T)[sp].d(G)[sp].d([m5C])[sp].d([m5C])[sp].[moe]([m5C])[sp].[moe](T)[sp].[moe](T)[sp].[moe](G)}$$$$ (last 3' nucleoside missing) | 7
RNA1{[moe](G)[sp].[moe]([m5C])p.[moe](A)p.[moe](A)p.[moe](A)p.d(G)[sp].d(A)[sp].d([m5C])[sp].d(T)[sp].d(T)[sp].d(T)[sp].d(G)[sp].d(A)[sp].d(A)[sp].d(A)[sp].[moe](T)p.[moe]([m5C])p.[moe](T)[sp].[moe]([m5C])}$$$$ (last 3' nucleoside missing) | 0
RNA1{[moe](G)[sp].[moe]([m5C])p.[moe](A)p.[moe](A)p.[moe]([m5C])p.d(T)[sp].d(T)[sp].d(A)[sp].d(A)[sp].d(T)[sp].d(A)[sp].d(A)[sp].d([m5C])[sp].d([m5C])[sp].d(T)[sp].[moe](T)p.[moe](A)p.[moe](G)[sp].[moe](T)}$$$$ (last 3' nucleoside missing) | 0
RNA1{[moe](G)[sp].[moe]([m5C])p.[moe](A)p.[moe](T)p.[moe](G)p.d(A)[sp].d(T)[sp].d([m5C])[sp].d(T)[sp].d(T)[sp].d(G)[sp].d(T)[sp].d(G)[sp].d(T)[sp].d(A)[sp].[moe](T)p.[moe](A)p.[moe](T)[sp].[moe](A)}$$$$ (last 3' nucleoside missing) | 1
RNA1{[moe](G)[sp].[moe]([m5C])p.[moe](A)p.[moe](T)p.[moe]([m5C])p.d(A)[sp].d(T)[sp].d(T)[sp].d(A)[sp].d([m5C])[sp].d(G)[sp].d(A)[sp].d([m5C])[sp].d([m5C])[sp].d(A)[sp].[moe](T)p.[moe](T)p.[moe]([m5C])[sp].[moe](T)}$$$$ (last 3' nucleoside missing) | 4
RNA1{[moe](G)[sp].[moe]([m5C])p.[moe](A)p.[moe]([m5C])p.[moe](A)p.d(T)[sp].d(A)[sp].d(G)[sp].d(G)[sp].d(T)[sp].d(T)[sp].d(A)[sp].d(G)[sp].d(A)[sp].d(A)[sp].[moe](T)p.[moe](T)p.[moe](T)[sp].[moe](T)}$$$$ (last 3' nucleoside missing) | 4
RNA1{[moe](G)[sp].[moe]([m5C])p.[moe](G)p.[moe](G)p.[moe](T)p.d(G)[sp].d(A)[sp].d(A)[sp].d(T)[sp].d(T)[sp].d([m5C])[sp].d(T)[sp].d(G)[sp].d(T)[sp].d([m5C])[sp].[moe](T)p.[moe]([m5C])p.[moe]([m5C])[sp].[moe]([m5C])}$$$$ (last 3' nucleoside missing) | 0
RNA1{[moe](G)[sp].[moe]([m5C])p.[moe](T)p.[moe](A)p.[moe](A)[sp].d([m5C])[sp].d(T)[sp].d(G)[sp].d(G)[sp].d(T)[sp].d(T)[sp].d(T)[sp].d(G)[sp].[moe]([m5C])p.[moe]([m5C])p.[moe]([m5C])[sp].[moe](T)}$$$$ (last 3' nucleoside missing) | 6.5
RNA1{[moe](G)[sp].[moe]([m5C])p.[moe](T)p.[moe](A)p.[moe](A)p.d([m5C])[sp].d(T)[sp].d(G)[sp].d(G)[sp].d(T)[sp].d(T)[sp].d(T)[sp].d(G)[sp].d([m5C])[sp].d([m5C])[sp].[moe]([m5C])p.[moe](T)p.[moe](T)[sp].[moe](G)}$$$$ (last 3' nucleoside missing) | 6.75
RNA1{[moe](G)[sp].[moe]([m5C])p.[moe](T)p.[moe](G)p.[moe](A)p.d(T)[sp].d(G)[sp].d(T)[sp].d(G)[sp].d(T)[sp].d(T)[sp].d([m5C])[sp].d(A)[sp].d(T)[sp].d(G)[sp].[moe](A)p.[moe]([m5C])p.[moe](T)[sp].[moe](T)}$$$$ (last 3' nucleoside missing) | 4.5
RNA1{[moe](G)[sp].[moe]([m5C])p.[moe](T)p.[moe](G)p.[moe](G)p.d(T)[sp].d(T)[sp].d([m5C])[sp].d([m5C])[sp].d(T)[sp].d(T)[sp].d(A)[sp].d([m5C])[sp].d(A)[sp].d(A)[sp].[moe](T)p.[moe](T)p.[moe](A)[sp].[moe](T)}$$$$ (last 3' nucleoside missing) | 0
RNA1{[moe](G)[sp].[moe]([m5C])p.[moe](T)p.[moe](G)p.[moe](T)p.d(A)[sp].d(T)[sp].d(T)[sp].d(T)[sp].d(T)[sp].d(T)[sp].d(A)[sp].d([m5C])[sp].d(T)[sp].d([m5C])[sp].[moe](A)p.[moe]([m5C])p.[moe]([m5C])[sp].[moe](T)}$$$$ (last 3' nucleoside missing) | 0
